Laboratory results as given in publication PMC12423301, “Astrocytic monoamine oxidase B (MAOB)–gamma-aminobutyric acid (GABA) axis as a molecular brake on repair following spinal cord injury” (Signal Transduction and Targeted Therapy, 2025).

What was measured:
APP/PS1 transgenic mice [1] = assay: Tonic GABA current, neuronal firing and DAO compensation in APP/PS1 mice; type: in vivo, mouse; conditions: 4-week repeated dosing test
[2] = similar drugs; ref ZELAPAR®, XADAGO®; cited from earlier work
APP/PS1 transgenic mice [3] = assay: Cognitive tests in APP/PS1 transgenic mice; type: in vivo, mouse; conditions: 4-week repeated dosing test
[4] = tested on: primary cultured spinal cord astrocytes; assay: BDNF expression in cultured astrocytes (qPCR, Western blot); type: cell-based, mouse

SMILES | neuronal firing (APP/PS1 transgenic mice [1]; 2nd week) | neuronal firing (APP/PS1 transgenic mice [1]; 4th week) | Tmax [2] [min] | cognitive function (APP/PS1 transgenic mice [3]) | mRNA expression level of BDNF ([4]; GABA 100 μM, 24 h) | proBDNF expression (Western blotting) ([4]; GABA-treated)
C#CCN(C)[C@H](C)Cc1ccccc1 [selegiline, reference compound] | started to decrease | completely lost | 45 | cognitive function decline | – | –
NCCCC(=O)O [GABA, γ-aminobutyric acid] | – | – | – | – | significantly downregulated | reduction
